Measurements: patent publication US20060058268A1, “Compounds and methods for treating diabetic vascular diseases” (priority 2004, published 2006)
pIC50: −log10 of the molar value.

Experiments:
[1] = system: VCAM-1; assay: VCAM-1 assay with ELISA readout (Examples 5-6); assay type: cell-based; details: for pIC50: TNF added with compound, incubated overnight (approximately 16 hours); for VCAM-1 inhibition at [μM] / inhibition at 50 µM: at 50 μM
Description: Two to four confluent P150 plates are trypsinized and the cells transferred to a 50 mL conical centrifuge tube. The cells are pelleted, resuspended, and counted using the trypan blue exclusion method.
Cells are resuspended at a concentration of 36,000 cells/mL and 1 mL is aliquoted per well.
Cells are split into 24 well tissue culture plates. The cells in each well should be approximately 90-95% confluent by the following day. Cells should not be older than passage 8.
Compounds are initially screened at 50 μM and 10 μM. A 50 mM stock solution for each compound is prepared in culture medium. The stock solution is diluted to 5 mM and 1 mM. When 10 μL of the 5 mM solution is added to the well (1 mL medium/well), the final concentration will be 50 μM. Adding 10 μL of the 1 mM solution to the well will give a final concentration of 10 μM.
Compounds which will not go into solution in culture medium are resuspended in DMSO at a concentration of 25 mM. The stock solution is then diluted to the final concentration in culture medium. The old medium is aspirated and 1 mL of the new medium with the compound is added. For example, if the final concentration is 50 µM, the 2 μL of the 25 mM stock is added per mL of culture medium. The […] solution is diluted for lower concentrations.
The compounds are added to the plate (each compound is done in duplicate). One plate is done for VCAM expression and one plate is done for ICAM expression.
Immediately after the compounds are added, TNF is added to each well. 100 units/mL TNF is usually added to each well. Since each lot of TNF varies in the number of units, each new lot is titrated to determine the optimum concentration. Therefore this concentration will change. If 100 units/mL is being used, dilute the TNF to 10 units/μL and add 10 μL to each well.
(§1) The plates are incubated at 37° C., 5% CO2 overnight (approximately 16 hours). The next day the plates are checked under the microscope to see if there are any visual signs of toxicity. Records are made of any cell death, debris, or morphology changes, as well as insoluble compounds (particulate or turbity).
In order to assess MCP-1, the media (500 μL) is saved and frozen at −70° C. Wash cells once with roughly 1 ml/well of Hanks Balance Salt Solution (HBSS) or PBS. Gently empty the wash solution and then tap the plate onto paper towels. Add either 250 μL/well of HBSS+5% FCCS to the plank (no primary antibody wells) or 250 μL/well of primary antibody diluted in HBSS+5% FCS. Incubate for 30 minutes at 37° C. Wash the wells twice with 0.5 mL/well HBSS or PBS and gently tap the plates onto paper towels after the last wash. Add 250 μL/well of HRP-conjugated second antibody diluted in HBSS+5% FCS to every well including the blank wells (no primary antibody). Incubate at 37° C. for 30 minutes. Wash the wells four times with 0.5 mL/well HBSS or PBS and gently tap the plates onto paper towels after the last wash. Add 250 μL/well of substrate solution. Incubate at room temperature in the dark until there is adequate color development (blue). Note the length of time incubation was performed (typically 15-30 minutes). Add 75 μL/well stopper solution (8N sulfuric acid), and read at 450 nm.

[2] = system: cells; assay type: cell-based; parameters: unit not given beside the values
Description: as §1

Row | Molecule | pIC50 [1] | LD50 [2] | further results
1 | CC(C)(C)c1cc(S(=O)(=O)Cc2ccc([N+](=O)[O-])cc2)cc(C(C)(C)C)c1O [2,6-di-tert-butyl-4-(sulfonyl-(4′-nitrobenzyl))phenol] | 4.40 | 100 | –
2 | CC(C)(C)c1cc(SCc2ccc([N+](=O)[O-])cc2[N+](=O)[O-])cc(C(C)(C)C)c1O [2,6-di-tert-butyl-4-thio(2′,4′-dinitrobenzyl)phenol] | 5.10 | 400 | –
3 | CN(C)CCCSc1cc(C(C)(C)C)c(O)c(C(C)(C)C)c1 [2,6-di-tert-butyl-4-thio(3′-(dimethylamino)propyl))phenol] | – | 100 | VCAM-1 inhibition at [μM] [1]: 30% at 50
4 | CC(C)(C)c1cc(SCc2cccc([N+](=O)[O-])c2)cc(C(C)(C)C)c1O [2,6-di-tert-butyl-4-thio(3′-nitrobenzyl)phenol] | 4.89 | 200 | –
5 | CC(C)(C)c1cc(SCc2ccc(C(=O)O)cc2)cc(C(C)(C)C)c1O [2,6-di-tert-butyl-4-thio(4′(methyl)benzoic acid)phenol] | < 4.30 | >100 | –
6 | CC(C)(C)c1cc(SCc2ccc(CCO)cc2)cc(C(C)(C)C)c1O [2,6-di-tert-butyl-4-thio(4′-(methyl)phenylethyl alcohol))phenol] | 4.82 | 50 | –
7 | CC(=O)Oc1ccc(CSc2cc(C(C)(C)C)c(O)c(C(C)(C)C)c2)cc1 [2,6-di-tert-butyl-4-thio(4′-acetoxybenzyl)phenol] | 4.74 | 75 | –
8 | CN(C)S(=O)(=O)c1ccc(CSc2cc(C(C)(C)C)c(O)c(C(C)(C)C)c2)cc1 [2,6-di-tert-butyl-4-thio(4′-methyl-N,N-dimethylbenzene-sulfonamide)phenol] | 4.70 | 350 | –
9 | CC(C)(C)c1cc(SCc2ccc([N+](=O)[O-])cc2)cc(C(C)(C)C)c1O [2,6-di-tert-butyl-4-thio(4′-nitrobenzyl)phenol] | 5.00 | 200 | –
10 | CC(C)(C)c1cc(SCCc2ccc([N+](=O)[O-])cc2)cc(C(C)(C)C)c1O [2,6-di-tert-butyl-4-thio(4′-nitrophenethyl)phenol] | 4.82 | 0.4 | –
11 | CCCCC(OC(C)=O)Sc1cc(C(C)(C)C)c(O)c(C(C)(C)C)c1 (centres unmarked) [2,6-di-tert-butyl-4-thio((1′-(acetoxy))pentyl)phenol] | – | 100 | –
12 | CC(C)(C)c1cc(SCc2ccc(C(=O)O)o2)cc(C(C)(C)C)c1O [2,6-di-tert-butyl-4-thio((2′-furancarboxylic acid)-5-methyl)phenol] | 4.40 | 400 | –
13 | CC(C)(C)c1cc(SCCCC(=O)O)cc(C(C)(C)C)c1O [2,6-di-tert-butyl-4-thio(butanoic acid)phenol] | 4.12 | 200 | –
14 | CC(C)(C)c1cc(SCc2ccc(CC(=O)O)cc2)cc(C(C)(C)C)c1O [2,6-di-tert-butyl-4-thio-(4′(methyl)phenylacetic acid)) phenol] | 4.10 | 200 | –
15 | CC(C)(C)c1cc(SCc2ccc(C(F)(F)F)cc2)cc(C(C)(C)C)c1O [(2,6-di-tert-butyl-4-thio(4′-(trifluoromethyl)benzyl)phenol] | 5.30 | 300 | –
16 | CC(C)(Sc1cc(C(C)(C)C)c(O)c(C(C)(C)C)c1)Sc1cc(C(C)(C)C)c(OC(=O)CCCC(=O)O)c(C(C)(C)C)c1 [Pentanedioic acid mono[4-[[1-[[3,5-bis(1,1-dimethylethyl)-4-hydroxyphenyl]thio]-1-methylethyl]thio]-2,6-bis(1,1-dimethylethyl)phenyl] ester] | – | – | pIC50 ([1]; 16 h): 5.06
17 | CC(C)(Sc1cc(C(C)(C)C)c(O)c(C(C)(C)C)c1)Sc1cc(C(C)(C)C)c(OCc2ccc([N+](=O)[O-])cc2)c(C(C)(C)C)c1 [Phenol, 4-[[1-[3,5-bis(1,1-dimethylethyl)4-[(4-nitrophenyl)methoxy]phenyl]thio]-1-methylethyl]thio]2,6-bis(1,1-dimethylethyl)-] | – | >100 | VCAM-1 inhibition at [μM] [1]: 30% at 50
18 | CCOCC(O)COc1c(C(C)(C)C)cc(SC(C)(C)Sc2cc(C(C)(C)C)c(O)c(C(C)(C)C)c2)cc1C(C)(C)C (centres unmarked) [Phenol, 4-[[1-[[3,5-bis(1,1-dimethylethyl)-4-(3-ethoxy-2-hydroxypropoxy)phenyl]thio]-1-methylethyl]thio]-2,6-bis(1,1-dimethylethyl)-] | – | – | pIC50 ([1]; 16 h): 4.12
19 | CC(C)(Sc1cc(C(C)(C)C)c(O)c(C(C)(C)C)c1)Sc1cc(C(C)(C)C)c(OCCCCO)c(C(C)(C)C)c1 [Phenol, 4-[[1-[[3,5-bis(1,1-dimethylethyl)-4-(4-hydroxybutoxy)phenyl]thio]-1-methylethyl]thio]-2,6-bis(1,1-dimethylethyl)-] | – | – | pIC50 ([1]; 16 h): 3.90
20 | CC(C)(Sc1cc(C(C)(C)C)c(O)c(C(C)(C)C)c1)Sc1cc(C(C)(C)C)c(OC=CCO)c(C(C)(C)C)c1 [Phenol, 4-[[1-[[3,5-bis(1,1-dimethylethyl)-4-[[3-hydroxy-1-propenyl)oxy]phenyl]thio]-1-methylethyl]thio]-2,6-bis(1,1-dimethylethyl)-] | – | – | pIC50 ([1]; 16 h): 4.26
21 | CC(C)(Sc1cc(C(C)(C)C)c(O)c(C(C)(C)C)c1)Sc1cc(C(C)(C)C)c(OCCCCN)c(C(C)(C)C)c1 [Phenol, 4-[[1-[[4-(4-aminobutoxy)-3,5-bis(1,1-dimethylethyl)phenyl]thio]-1-methylethyl]thio]2,6-bis(1,1-dimethylethyl)-] | 5.05 | – | pIC50 ([1]; 16 h): 5.10
22 | CC(C)(Sc1ccc(OCCCCN)cc1)Sc1cc(C(C)(C)C)c(O)c(C(C)(C)C)c1 [Phenol, 4-[[1-[[4-(4-aminobutoxy)phenyl]thio]-1-methylethyl]thio]-2,6-bis(1,1-dimethylethyl)-] | – | – | pIC50 ([1]; 16 h): 5.30
23 | CN(C)c1ccc(CCOc2c(C(C)(C)C)cc(SC(C)(C)Sc3cc(C(C)(C)C)c(O)c(C(C)(C)C)c3)cc2C(C)(C)C)cc1 [Phenol, 4-[[1-[[4-[2-[4-(dimethylamino)phenyl]ethoxy]-3,5-bis(1,1-dimethylethyl)phenyl]thio]-1-methylethyl]thio]-2,6-bis(1,1-dimethylethyl)-] | – | – | pIC50 ([1]; 16 h): 4.26
24 | CN(C)CCCOc1c(C(C)(C)C)cc(SC(C)(C)Sc2cc(C(C)(C)C)c(O)c(C(C)(C)C)c2)cc1C(C)(C)C [Phenol, 4-[[1-[[4-[3-(dimethylamino)propoxy]-3,5-bis(1,1-dimethylethyl)phenyl]thio]-1-methylethyl]thio]-2,6-bis(1,1-dimethylethyl)-] | – | – | inhibition at 50 µM [1]: 22%
25 | CC1(C)OC2OC(COc3c(C(C)(C)C)cc(SC(C)(C)Sc4cc(C(C)(C)C)c(O)c(C(C)(C)C)c4)cc3C(C)(C)C)C3OC(C)(C)OC3C2O1 [α-D-Galactopyranose, 6-O-[4-[[1-[[3,5-bis(1,1-dimethylethyl)-4-hydroxyphenyl]thio]-1-methylethyl]thio]-2,6-bis(1,1-dimethylethyl)phenyl]-1,2:3,4-bis-O-(1-methylethylidene)] | 4.35 | – | –
26 | CC(C)(Sc1cc(C(C)(C)C)c(O)c(C(C)(C)C)c1)Sc1cc(C(C)(C)C)c(OC[C@H]2O[C@@H](O)[C@H](O)[C@@H](O)[C@@H]2O)c(C(C)(C)C)c1 [β-D-Glucopyranose, 6-O-[4-[[1-[[3,5-bis(1,1-dimethylethyl)-4-hydroxyphenyl]thio]-1-methylethyl]thio]-2,6-bis(1,1-dimethylethyl)phenyl]-] | – | – | inhibition at 50 µM [1]: 30%
27 | Butanedioic acid, (1-methylethylidine)bis[thio[2,6-bi(1,1-dimethylethyl)-4,1-phenylene}}ester | < 4.30 | 25 | –
28 | Butanedioic acid, mono[4-[[1-[[3,5-bis(1,1-dimethylethyl)-4-methoxyphenyl]thio]1-methylethyl]thio]-2,6-bis(1,1-dimethylethyl)phenyl] ester | < 4.30 | – | –
29 | Oxiranemethanol, α-[[[3-[[4-[[1-[[3,5-bis(1,1-dimethylethyl)-4-hydroxyphenyl]thio]-1-methylethyl]thio]-2,6-bis(1,1-dimethylethyl)phenoxy]methyl]oxiranyl]methoxy]methyl]- | 4.22 | – | –
30 | Pentanedioic acid, (1-methylethylidene)bis(thio{2,6-bis(1,1-dimethylethyl)-4,1-phenylene)]ester | < 4.30 | – | –
